According to ChEMBL document CHEMBL1629470, “Synthesis, biological evaluation and docking studies of 4-amino-tetrahydroquinazolino[3,2-e]purine derivatives” (Eur J Med Chem, 2010):

Experiments:
[1] = molecular target: Proto-oncogene tyrosine-protein kinase Src (Homo sapiens) (UniProt P12931); test: Inhibition of Src at 10 uM after 20 mins
L1210 = test: Cytotoxicity against mouse L1210 cells after 4 hrs by MTT assay; type: functional

Sequence of Proto-oncogene tyrosine-protein kinase Src (Homo sapiens) (P12931 2-536 limits assumed): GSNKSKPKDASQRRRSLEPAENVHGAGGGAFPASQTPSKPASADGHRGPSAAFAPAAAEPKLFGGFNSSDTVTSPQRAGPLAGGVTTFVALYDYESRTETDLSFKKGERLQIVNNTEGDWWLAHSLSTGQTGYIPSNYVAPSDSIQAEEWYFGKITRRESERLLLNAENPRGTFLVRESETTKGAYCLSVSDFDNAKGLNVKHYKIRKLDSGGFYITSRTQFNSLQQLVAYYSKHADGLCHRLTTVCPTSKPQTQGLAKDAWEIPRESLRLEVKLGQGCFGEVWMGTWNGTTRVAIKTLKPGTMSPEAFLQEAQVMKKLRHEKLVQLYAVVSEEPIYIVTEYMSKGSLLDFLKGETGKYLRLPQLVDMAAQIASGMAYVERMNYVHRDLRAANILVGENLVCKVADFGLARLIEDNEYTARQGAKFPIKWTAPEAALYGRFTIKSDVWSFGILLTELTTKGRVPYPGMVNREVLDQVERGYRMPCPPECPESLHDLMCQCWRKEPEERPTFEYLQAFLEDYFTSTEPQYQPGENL

## Brc1ccccc1Nc1ncnc2c1nc1n2Cc2ccccc2N1CCN1CCOCC1.Cl
[1]
  inhibition: 30%
L1210
  Activity: 21.9 µM

## Nc1ncnc2c1nc1n2Cc2ccccc2N1
[1]
  inhibition: 72%
L1210
  Activity: 7.3 µM

## Nc1nc(Cl)nc2c1nc1n2Cc2ccccc2N1
[1]
  inhibition: 49%
L1210
  Activity: 23 µM

## Cl.Clc1ccccc1Nc1ncnc2c1nc1n2Cc2ccccc2N1CCN1CCOCC1
[1]
  inhibition: 20%
L1210
  Activity: 11.9 µM

## Cl.c1ccc(Nc2ncnc3c2nc2n3Cc3ccccc3N2CCN2CCOCC2)cc1
[1]
  inhibition: 15%
L1210
  Activity: 16.1 µM

## CCN(CC)CCN1c2ccccc2Cn2c1nc1c(Nc3ccccc3)ncnc12.Cl
[1]
  inhibition: 0%
L1210
  Activity: 17.9 µM

## c1ccc(Nc2ncnc3c2nc2n3Cc3ccccc3N2)cc1
[1]
  inhibition: 58%
L1210
  Activity: 34.3 µM

## Cl.c1ccc(CNc2ncnc3c2nc2n3Cc3ccccc3N2CCN2CCOCC2)cc1
[1]
  inhibition: 9%
L1210
  Activity: 31 µM
